According to patent publication US20160220557A1, “USE OF ACETYL-COA CARBOXYLASE INHIBITORS FOR TREATING ACNE VULGARIS” (PFIZER INC., priority 2013, published 2016):
Like-named read-outs stand apart in the source and are kept apart here.

Assays:
[1] = biological target: T1, recombinant human ACC1 (rhACC1) (Homo sapiens, UniProt Q13085, DEL44-44); experiment: Transcreener ADP detection FP assay, recombinant human ACC1 inhibition; format: biochemical; details: recombinant human ACC1, 50 μM ATP; read-out: Transcreener Assay hACC1 IC50
T1 construct: His6 (N); made in house; host or cells: SF9 insect cells (baculovirus)

[2] = biological target: T2, recombinant human ACC2 (rhACC2) (Homo sapiens, UniProt O00763, V2141I); experiment: Transcreener ADP detection FP assay, recombinant human ACC2 inhibition; format: biochemical; details: recombinant human ACC2, 50 μM ATP; read-out: Transcreener Assay hACC2 IC50
T2 construct: made in house; host or cells: CHO cells, tetracycline-induced (pcDNA5 FRT TO-TOPO)

[3] = tested on: SZ95 human sebocyte cells; experiment: Inhibition of de novo lipogenesis (14C-acetate incorporation) in cultured human sebocytes; format: cell-based; details: SZ95 sebocytes, 14C-acetate incorporation into lipids relative to vehicle, read-out: C9302E Sebocyte IC50
Experimental: SZ95 sebocytes were grown in Human Sebocyte Growth Medium (HSGM) (Sebomed® medium (Biochrom: F8205) supplemented with 10% heat-inactivated fetal bovine serum, 1% penicillin/streptomycin, 1 mM calcium chloride and 5 ng/mL recombinant human epidermal growth factor (Life Tech: PHG0311)). At 90% confluence, cells were washed three times with PBS and then detached with 0.05% Trypsin-EDTA. Cells were centrifuged and resuspended in HSGM containing 10% charcoal-stripped serum (Life Tech: 12676-029). Cells were then plated in 24-well plates at a density of 0.25×10^6 cells/well and were incubated overnight to enable cell adherence to the culture plate.
Cells were treated with a dose response of compound, and each dose was assayed in triplicate. Briefly, compounds were dissolved in DMSO stocks and diluted 1:1000 into charcoal-stripped media. 0.1% DMSO without compound was used as the vehicle control. After a 1 hour preincubation with compound or vehicle, 0.25 μCi ^14C-acetic acid (American Radiolabeled Chemicals: ARC0158B) was added to each well. Plates were then incubated for an additional two hours. At the end of the incubation period, cells were removed from incubator, placed on ice, and then washed twice with ice-cold PBS to remove free ^14C-acetic acid. Plates were sealed and stored at −20° C. until analysis.
Plates were shaken for 1 hour at room temperature to induce lysis. Lysates were transferred to individual 1.5 mL polypropylene tubes, and wells were washed with 175 μl of PBS, which was added to lysates. 450 μl of a 1:1 (v/v) chloroform:methanol solution was then added to each tube, and then all tubes were vortexed for 10 seconds and centrifuged at 20,000×g for 5 minutes at room temperature to separate aqueous from organic phase. A 25 μl aliquot was removed from the bottom organic layer of each sample and added to 6 mL OptiPhase supermix (PerkinElmer: 1200-439) scintillation fluid. Counts of ^14C incorporated into lipids were assessed by scintillation counting. DNL (counts of ^14C incorporated into lipids) was expressed for compound treated cells relative to DNL in the vehicle control treated cells for determination of EC50 values. For a subset of the compounds tested, a second aliquot (3×35 μl) of the organic layer of each sample was removed and applied to a TLC lane (Analtech Silica Gel G Plates). Radiolabeled lipids were resolved using a 2-solvent system. Solvent 1 contained a 100:100:100:40:36 mixture of ethyl acetate:isopropyl alcohol:CHCl3:MeOH:0.25% KCl and solvent 2 a 70:27:3 hexane:diethyl ether:acetic acid mix. The TLC plate was dried under nitrogen for 30 minutes and [^14C]-calibrators added to a vacant lane. Bands were visualized and quantitated using a Molecular Dynamics' Storm 860 Phosphorimager system following 18-36 hours exposure to a Phosphorimager screen.

hACC1 = hACC1 (Homo sapiens, UniProt Q13085); experiment: Radiometric ACC1 inhibition assay; format: biochemical
hACC2 = hACC2 (Homo sapiens, UniProt O00763); experiment: Radiometric ACC2 inhibition assay; format: biochemical
Sequence of hACC2 (O00763 whole entry): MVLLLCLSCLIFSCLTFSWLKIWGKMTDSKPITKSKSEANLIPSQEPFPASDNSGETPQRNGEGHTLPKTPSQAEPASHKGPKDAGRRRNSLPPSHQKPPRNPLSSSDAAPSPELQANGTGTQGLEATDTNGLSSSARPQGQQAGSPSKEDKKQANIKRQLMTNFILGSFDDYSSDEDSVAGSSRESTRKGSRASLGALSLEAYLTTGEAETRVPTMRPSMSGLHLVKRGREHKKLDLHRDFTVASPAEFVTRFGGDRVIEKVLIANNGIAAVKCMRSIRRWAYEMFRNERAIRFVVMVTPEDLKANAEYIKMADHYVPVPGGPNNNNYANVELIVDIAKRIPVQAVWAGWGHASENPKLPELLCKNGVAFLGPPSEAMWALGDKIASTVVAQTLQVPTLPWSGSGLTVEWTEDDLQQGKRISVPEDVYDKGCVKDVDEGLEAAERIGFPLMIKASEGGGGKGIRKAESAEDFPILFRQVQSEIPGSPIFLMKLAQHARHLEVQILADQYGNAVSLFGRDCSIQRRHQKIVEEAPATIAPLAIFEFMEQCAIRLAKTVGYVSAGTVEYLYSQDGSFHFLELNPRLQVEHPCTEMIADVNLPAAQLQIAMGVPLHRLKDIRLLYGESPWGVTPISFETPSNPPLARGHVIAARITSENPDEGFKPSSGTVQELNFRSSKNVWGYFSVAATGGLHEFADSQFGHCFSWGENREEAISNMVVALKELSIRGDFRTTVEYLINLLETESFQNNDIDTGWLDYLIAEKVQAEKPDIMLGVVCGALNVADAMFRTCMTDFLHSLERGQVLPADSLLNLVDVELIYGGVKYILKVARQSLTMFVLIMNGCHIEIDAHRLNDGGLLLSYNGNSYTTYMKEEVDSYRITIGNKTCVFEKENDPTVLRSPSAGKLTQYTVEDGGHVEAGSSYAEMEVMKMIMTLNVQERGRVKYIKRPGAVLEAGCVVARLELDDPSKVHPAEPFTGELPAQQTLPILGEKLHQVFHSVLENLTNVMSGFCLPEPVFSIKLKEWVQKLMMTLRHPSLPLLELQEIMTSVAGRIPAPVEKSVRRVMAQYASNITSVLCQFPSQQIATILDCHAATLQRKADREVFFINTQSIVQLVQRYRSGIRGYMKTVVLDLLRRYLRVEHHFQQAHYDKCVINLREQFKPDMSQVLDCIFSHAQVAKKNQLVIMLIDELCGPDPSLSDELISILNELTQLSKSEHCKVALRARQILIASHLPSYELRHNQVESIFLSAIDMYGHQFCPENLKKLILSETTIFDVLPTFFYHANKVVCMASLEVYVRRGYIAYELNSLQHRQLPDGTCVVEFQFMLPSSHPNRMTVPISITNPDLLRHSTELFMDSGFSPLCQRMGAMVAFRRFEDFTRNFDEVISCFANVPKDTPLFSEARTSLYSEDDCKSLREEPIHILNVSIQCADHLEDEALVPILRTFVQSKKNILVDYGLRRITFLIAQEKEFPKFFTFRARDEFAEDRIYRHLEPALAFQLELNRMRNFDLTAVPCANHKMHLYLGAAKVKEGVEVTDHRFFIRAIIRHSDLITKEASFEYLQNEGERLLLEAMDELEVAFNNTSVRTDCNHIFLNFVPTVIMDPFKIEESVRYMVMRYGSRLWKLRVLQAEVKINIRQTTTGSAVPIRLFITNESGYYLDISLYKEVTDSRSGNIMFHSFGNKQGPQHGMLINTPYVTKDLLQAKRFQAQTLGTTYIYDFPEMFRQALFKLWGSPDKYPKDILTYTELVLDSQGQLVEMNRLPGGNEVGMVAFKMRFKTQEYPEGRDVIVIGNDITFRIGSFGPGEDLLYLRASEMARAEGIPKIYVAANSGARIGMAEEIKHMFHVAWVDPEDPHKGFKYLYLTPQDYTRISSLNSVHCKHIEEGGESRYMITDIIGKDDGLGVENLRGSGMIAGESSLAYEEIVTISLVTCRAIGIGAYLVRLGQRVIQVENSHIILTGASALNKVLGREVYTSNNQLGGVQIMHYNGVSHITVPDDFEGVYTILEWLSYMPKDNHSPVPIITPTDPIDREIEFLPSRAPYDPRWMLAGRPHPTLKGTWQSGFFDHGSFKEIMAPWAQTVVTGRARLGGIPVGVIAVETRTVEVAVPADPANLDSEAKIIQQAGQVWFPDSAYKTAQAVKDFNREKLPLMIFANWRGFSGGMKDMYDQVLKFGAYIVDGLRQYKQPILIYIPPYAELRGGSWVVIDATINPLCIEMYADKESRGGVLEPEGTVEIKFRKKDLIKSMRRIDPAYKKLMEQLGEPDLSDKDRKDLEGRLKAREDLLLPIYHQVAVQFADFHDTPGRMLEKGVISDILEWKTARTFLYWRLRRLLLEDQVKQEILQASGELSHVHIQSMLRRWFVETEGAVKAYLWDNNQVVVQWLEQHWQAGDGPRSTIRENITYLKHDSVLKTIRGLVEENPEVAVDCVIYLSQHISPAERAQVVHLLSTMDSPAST

T2 sequence (O00763 whole entry V2141I): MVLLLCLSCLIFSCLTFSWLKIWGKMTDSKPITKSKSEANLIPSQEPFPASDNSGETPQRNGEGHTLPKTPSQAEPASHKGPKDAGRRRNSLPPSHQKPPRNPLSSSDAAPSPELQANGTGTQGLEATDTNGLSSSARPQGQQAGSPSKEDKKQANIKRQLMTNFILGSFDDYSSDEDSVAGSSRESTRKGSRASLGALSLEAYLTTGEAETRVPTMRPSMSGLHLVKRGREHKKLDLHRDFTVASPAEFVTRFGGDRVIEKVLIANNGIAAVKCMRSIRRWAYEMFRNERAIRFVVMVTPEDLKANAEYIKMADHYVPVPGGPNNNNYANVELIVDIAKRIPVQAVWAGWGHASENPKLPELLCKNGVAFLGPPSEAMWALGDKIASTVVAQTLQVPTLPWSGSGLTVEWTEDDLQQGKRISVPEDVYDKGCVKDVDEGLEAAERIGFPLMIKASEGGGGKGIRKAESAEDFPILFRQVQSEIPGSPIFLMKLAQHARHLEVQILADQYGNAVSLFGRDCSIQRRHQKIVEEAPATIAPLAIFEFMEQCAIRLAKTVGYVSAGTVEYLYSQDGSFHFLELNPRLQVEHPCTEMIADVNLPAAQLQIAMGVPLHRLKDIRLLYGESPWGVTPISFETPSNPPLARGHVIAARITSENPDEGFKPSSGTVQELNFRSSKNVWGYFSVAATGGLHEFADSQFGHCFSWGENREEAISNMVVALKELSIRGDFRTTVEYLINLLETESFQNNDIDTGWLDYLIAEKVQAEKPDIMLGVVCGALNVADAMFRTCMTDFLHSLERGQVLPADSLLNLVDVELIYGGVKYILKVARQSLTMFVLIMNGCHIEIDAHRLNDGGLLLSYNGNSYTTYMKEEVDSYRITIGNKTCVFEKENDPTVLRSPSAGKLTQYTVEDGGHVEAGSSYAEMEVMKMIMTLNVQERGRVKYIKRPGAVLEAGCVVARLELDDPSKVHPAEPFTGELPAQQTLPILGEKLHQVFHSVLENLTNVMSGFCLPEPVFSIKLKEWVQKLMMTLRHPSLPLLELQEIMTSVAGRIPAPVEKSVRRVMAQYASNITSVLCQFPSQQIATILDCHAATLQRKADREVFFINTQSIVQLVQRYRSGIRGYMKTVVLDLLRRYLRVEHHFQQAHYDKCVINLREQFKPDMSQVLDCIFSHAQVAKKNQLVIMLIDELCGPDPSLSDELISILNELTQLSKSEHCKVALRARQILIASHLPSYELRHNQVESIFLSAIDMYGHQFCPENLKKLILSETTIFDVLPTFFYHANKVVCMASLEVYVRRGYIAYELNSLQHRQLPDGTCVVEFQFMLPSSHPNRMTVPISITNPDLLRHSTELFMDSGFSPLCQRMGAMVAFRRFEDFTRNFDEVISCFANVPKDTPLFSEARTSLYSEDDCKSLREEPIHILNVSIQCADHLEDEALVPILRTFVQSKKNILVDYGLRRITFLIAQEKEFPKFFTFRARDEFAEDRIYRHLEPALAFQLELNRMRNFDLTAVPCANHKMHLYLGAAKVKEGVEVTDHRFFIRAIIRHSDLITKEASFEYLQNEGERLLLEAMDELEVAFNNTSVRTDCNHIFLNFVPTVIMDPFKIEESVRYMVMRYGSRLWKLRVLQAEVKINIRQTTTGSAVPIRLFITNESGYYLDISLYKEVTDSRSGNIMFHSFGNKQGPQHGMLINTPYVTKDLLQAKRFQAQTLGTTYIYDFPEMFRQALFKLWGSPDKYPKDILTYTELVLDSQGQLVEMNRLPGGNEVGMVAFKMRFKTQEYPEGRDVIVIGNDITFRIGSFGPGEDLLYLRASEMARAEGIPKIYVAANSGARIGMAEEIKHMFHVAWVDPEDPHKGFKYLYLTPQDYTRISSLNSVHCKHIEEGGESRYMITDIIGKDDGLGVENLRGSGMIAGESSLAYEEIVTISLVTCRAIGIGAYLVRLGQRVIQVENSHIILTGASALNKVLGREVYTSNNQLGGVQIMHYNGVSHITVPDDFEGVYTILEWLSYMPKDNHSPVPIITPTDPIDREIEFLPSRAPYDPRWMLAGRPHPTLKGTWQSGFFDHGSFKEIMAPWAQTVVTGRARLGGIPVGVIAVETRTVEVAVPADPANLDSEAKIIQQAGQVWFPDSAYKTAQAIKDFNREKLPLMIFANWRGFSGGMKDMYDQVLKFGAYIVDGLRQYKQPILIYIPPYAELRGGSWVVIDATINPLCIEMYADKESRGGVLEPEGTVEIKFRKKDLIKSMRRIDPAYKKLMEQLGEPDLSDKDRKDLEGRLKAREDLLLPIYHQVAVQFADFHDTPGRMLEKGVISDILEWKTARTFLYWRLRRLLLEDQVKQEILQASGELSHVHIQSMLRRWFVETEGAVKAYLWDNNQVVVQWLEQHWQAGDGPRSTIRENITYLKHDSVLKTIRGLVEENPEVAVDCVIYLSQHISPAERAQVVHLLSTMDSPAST

Work on `CCCOc1ccc(Oc2ccc(-c3ccc(C(C)NC(C)=O)cc3)cn2)cc1` (stereo not drawn) [Example 13, N-(1-(4-(6-(4-propoxyphenoxy)pyridin-3-yl)phenyl)ethyl)acetamide, reference compound] yielded an IC50 [1] of over 2.98 µM, an IC50 [2] of 0.18 µM and an IC50 ([3]; Homo sapiens) of 3.27 µM.
For `CO[C@H]1CCCC[C@@H](c2ccccc2)OC(=O)[C@@H](C)[C@@]2(O)O[C@H]([C@@H](C)[C@H](O)[C@H]2OC)[C@@H](C)/C=C/[C@H]1OC` [Example 9, reference compound], the IC50 [1] was 0.02 µM, the IC50 [2] was 1.2 µM and the IC50 ([3]; Homo sapiens) was 0.004 µM. For the same compound, the IC50 (hACC1) was 0.14 µM and the IC50 (hACC2) was 0.016 µM.
In the case of `CC(C)n1ncc2c1C(=O)CC1(CCN(C(=O)c3ccc4ccc(NC(C)(C)C)nc4c3)CC1)C2` [Example 4, 1′-(2-(tert-butylamino)quinoline-7-carbonyl)-1-isopropyl-4,6-dihydrospiro[indazole-5,4′-piperidin]-7(1H)-one], the IC50 [1] is reported as 0.017 µM, the IC50 [2] is reported as 0.012 µM and the IC50 ([3]; Homo sapiens) is reported as 0.015 µM. The IC50 (hACC1) was 0.006 µM and the IC50 (hACC2) was 0.005 µM.
`CC(=O)N[C@@H](C)CCc1ccc(Oc2ccc(OC(C)C)cc2)cc1` [Example 23, (S)—N-(4-(4-(4-isopropoxyphenoxy)phenyl)butan-2-yl)acetamide] showed an IC50 [1] of 0.68 µM, an IC50 [2] of 0.109 µM and an IC50 (hACC1) of 0.687 µM. For the same compound, the IC50 (hACC2) was 0.016 µM.
With `CC(C)n1ncc2c1C(=O)CC1(CCN(C(=O)c3ccc4[nH]ncc4c3)CC1)C2` [Example 5, 1′-(1H-indazole-5-carbonyl)-1-isopropyl-4,6-dihydrospiro[indazole-5,4′-piperidin]-7(1H)-one] the IC50 [1] was 0.062 µM, the IC50 [2] was 0.03 µM and the IC50 ([3]; Homo sapiens) was 0.201 µM. The IC50 (hACC1) was 0.005 µM and the IC50 (hACC2) was 0.008 µM.
For `CCCCCCCCCCCCCCOc1ccc(C(=O)OC(C)C)o1` [Example 18, isopropyl 5-(tetradecyloxy)furan-2-carboxylate], the IC50 (hACC1) was over 10 µM.
For `CC(=O)NC(C)c1ccc(-c2cnc(Oc3ccc(OCC4CC4)cc3)s2)cc1` (stereo not drawn) [Example 22, N-(1-(4-(2-(4-(cyclopropylmethoxy)phenoxy)thiazol-5-yl)phenyl)ethyl)acetamide], the IC50 [1] was 4.05 µM and the IC50 [2] was 0.957 µM.
In the case of `COc1nccc2ccc(C(=O)N3CCC4(CC3)Cc3cn(C(C)(C)C)nc3C(=O)N4)cc12` [Example 7, 2′-(tert-butyl)-1-(1-methoxyisoquinoline-7-carbonyl)-4′,6′-dihydrospiro[piperidine-4,5′-pyrazolo[3,4-c]pyridin]-7′(2′H)-one], the IC50 ([3]; Homo sapiens) is reported as 0.094 µM.
`CCOc1cc(C(=O)N2CCC3(CC2)CC(=O)c2cc(-c4cncc(C(N)=O)c4)ccc2O3)cc(OCC)c1-c1cccc(C(=O)O)c1` [Example 14, 4′-(6-(5-carbamoylpyridin-3-yl)-4-oxospiro[chromane-2,4′-piperidine]-1′-carbonyl)-2′,6′-diethoxy-[1,1′-biphenyl]-3-carboxylic acid] was tested, and the IC50 [1] was 0.012 µM, the IC50 [2] was 0.008 µM and the IC50 ([3]; Homo sapiens) was 8.93 µM. The IC50 (hACC1) was 0.023 µM and the IC50 (hACC2) was 0.005 µM.
With `CC(=O)N[C@@H](C)c1cc(-c2cnc(Oc3ccc(OCC4CC4)cc3)s2)no1` [Example 21, (S)—N-(1-(3-(2-(4-(cyclopropylmethoxy)phenoxy)thiazol-5-yl)isoxazol-5-yl)ethyl)acetamide] the IC50 [1] was 0.044 µM, the IC50 [2] was 0.007 µM and the IC50 (hACC1) was 0.098 µM. For the same compound, the IC50 (hACC2) was 0.002 µM.
Work on `CC(C)n1ncc2c1C(=O)CC1(CCN(C(=O)c3ccc4[nH]nc(C#N)c4c3)CC1)C2` [Example 6, 5-(1-isopropyl-7-oxo-1,4,6,7-tetrahydrospiro[indazole-5,4′-piperidin]-1′-ylcarbonyl)-1H-indazole-3-carbonitrile] yielded an IC50 [3] of 0.103 µM, an IC50 (hACC1) of 0.005 µM and an IC50 (hACC2) of 0.004 µM.
`O=C(O)CCc1ccc(-c2ccc(S(=O)(=O)N[C@H]3CC[C@H](C(=O)N4CCOC[C@@H]4c4ccccc4)CC3)cc2)cc1` [Example 24, 3-(4′-(N-((1S,4r)-4-((S)-3-phenylmorpholine-4-carbonyl)cyclohexyl)sulfamoyl)-[1,1′-biphenyl]-4-yl)propanoic acid] gave an IC50 [1] of 0.041 µM and an IC50 [2] of 0.028 µM.
For `COc1ccc2ccc(C(=O)N3CCC4(CC3)CC(=O)c3c(cnn3C(C)C)C4)cc2c1` [Example 2, 1-isopropyl-1′-(7-methoxy-2-naphthoyl)-4,6-dihydrospiro[indazole-5,4′-piperidin]-7(1H)-one], the IC50 [1] was 0.004 µM, the IC50 [2] was 0.002 µM and the IC50 ([3]; Homo sapiens) was 0.0282 µM. It also gave an IC50 (hACC1) of 0.003 µM and an IC50 (hACC2) of 0.004 µM.
In the case of `CC(=O)NCC(C)c1ccc2nc(Oc3ccc(OCC4CC4)nc3)sc2c1` (stereo not drawn) [Example 15, N-(2-(2-((6-(cyclopropylmethoxy)pyridin-3-yl)oxy)benzo[d]thiazol-6-yl)propyl)acetamide], the IC50 [1] is reported as 2.2 µM, the IC50 [2] is reported as 1.1 µM and the IC50 ([3]; Homo sapiens) is reported as 4.31 µM.
`CC(=O)N[C@@H](C)C#Cc1ccc(Oc2ccc(OC(C)C)cc2)cc1` [Example 12, (S)—N-(4-(4-(4-isopropoxyphenoxy)phenyl)but-3-yn-2-yl)acetamide] was tested, and the IC50 [1] was 0.141 µM, the IC50 [2] was 0.029 µM and the IC50 ([3]; Homo sapiens) was 0.121 µM. It also gave an IC50 (hACC1) of 0.026 µM and an IC50 (hACC2) of 0.002 µM.
For `CCCCCCCCCCCCCCOc1ccc(C(=O)OCc2oc(=O)oc2C)o1` [Example 19, (5-methyl-2-oxo-1,3-dioxol-4-yl)methyl 5-(tetradecyloxy)furan-2-carboxylate], the IC50 (hACC1) was over 10 µM.
Work on `CC(C)n1ncc2c1C(=O)CC1(CCN(C(=O)c3ccc4[nH]nc(C#N)c4c3)CC1)C2` [Example 11, 5-(1-isopropyl-7-oxo-1,4,6,7-tetrahydrospiro[indazole-5,4′-piperidine]-1′-carbonyl)-1H-indazole-3-carbonitrile] yielded an IC50 [3] of 0.217 µM, an IC50 (hACC1) of 0.004 µM and an IC50 (hACC2) of 0.007 µM.
In the case of `COc1cc(C(=O)N2CCC3(CC2)CC(=O)c2cc(-c4nnn[nH]4)ccc2O3)cc2c1ccn2C1CC1` [Example 10, 1′-(1-cyclopropyl-4-methoxy-1H-indole-6-carbonyl)-6-(1H-tetrazol-5-yl)spiro[chromane-2,4′-piperidin]-4-one], the IC50 [1] is reported as 0.016 µM, the IC50 [2] is reported as 0.004 µM and the IC50 ([3]; Homo sapiens) is reported as 1.69 µM.
`CCCCC1=NC2(CCN(C(=O)c3c(NC(=O)NCC)sc4ccccc34)CC2)C(=O)N1` [Example 20, 1-(3-(2-butyl-4-oxo-1,3,8-triazaspiro[4.5]dec-1-ene-8-carbonyl)benzo[b]thiophen-2-yl)-3-ethyl urea] showed an IC50 [1] of 11 µM and an IC50 [2] of 2.2 µM.
Compound `CC(C)(O)[C@@H](NC(=O)[C@H]1CC[C@H](NS(=O)(=O)c2ccc(C(F)(F)F)cc2)CC1)c1ccccc1` [Example 16, (1R,4S)—N—((S)-2-hydroxy-2-methyl-1-phenylpropyl)-4-((4-(trifluoromethyl)phenyl)sulfonamido)cyclohexane-1-carboxamide] has an IC50 [1] of 0.074 µM, an IC50 [2] of 0.069 µM and an IC50 ([3]; Homo sapiens) of 2.77 µM.
In the case of `CCCCCCCCCCCCCCOc1ccc(C(=O)OCC(F)(F)F)o1` [Example 17, 2,2,2-trifluoroethyl 5-(tetradecyloxy)furan-2-carboxylate], the IC50 (hACC1) is reported as over 10 µM.
